Measurements from US20020052317A1, “Anti-viral and anti-tumor chemotherapy by administration of erythropoeitin” (priority 2000, published 2002).

Experiments:
[1] = tested on: anemic HCV infected patients receiving combination RBV/IFN alfa-2b; assay: Open-label, randomized, parallel-group study of PROCRIT once weekly versus standard of care in hepatitis C patients on ribavirin/interferon alfa-2b; assay type: in vivo, human
[2] = tested on: patients co-infected with HIV and HCV; settings: cited from earlier work
TNFβ (lymphotoxin α) = molecular target: T1, TNFβ (lymphotoxin α) (Homo sapiens, UniProt P01374); settings: cited from earlier work
T1 sequence (P01374 35-205): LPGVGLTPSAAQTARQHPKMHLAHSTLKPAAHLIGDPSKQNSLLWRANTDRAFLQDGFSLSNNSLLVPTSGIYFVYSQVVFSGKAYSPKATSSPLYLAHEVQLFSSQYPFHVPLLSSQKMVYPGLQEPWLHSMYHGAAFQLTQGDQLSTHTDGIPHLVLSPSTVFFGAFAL

[3] = in vivo, 5 mg/kg; cited from earlier work
[4] = tested on: subjects treated with REBETRON for chronic hepatitis C; settings: either ribavirin, interferon, or both agents; cited from earlier work
[5] = last available time point vs baseline, PROCRIT 40,000 Units qw s.c., N=22

With Epoetin alfa [PROCRIT] the “hemoglobin levels (in words)” value ([1]; anemic patients on Ribavirin/INF-alpha, FIG. 1) was “increase their hemoglobin levels to near normal levels”, the “Hb Range” value ([1]; baseline, before PROCRIT, N=25) was 9.1 to 12.0 g/dL and the “Mean Hb” value ([1]; baseline, before PROCRIT, N=25) was 11 g/dL. For the same compound, the “Change Hb Range” value [1, 5] was -1.4 to 6.2 g/dL, the “Mean change Hb” value [1, 5] was 2.4 g/dL and the “Hb Range” value ([1]; last available time point, PROCRIT 40,000 Units qw s.c., N=22) was 7.7 to 16.8 g/dL. The “Mean Hb” value ([1]; last available time point, analysis after 16 weeks, PROCRIT 40,000 Units qw s.c., N=22) was 13.5 g/dL, the patient well being ([1]; reported even before hemoglobin levels improved) was “demonstrated better well being” and the “ability to maintain Ribavirin dosing” value ([1]; throughout the study period, FIG. 2) was “increased ability to maintain Ribavirin dosing”. The “hemoglobin (Hb) value at initiation of r-HuEPO” value ([2]; before r-HuEPO 40,000 U once weekly) was 10 g/dL and the “hemoglobin (Hb) value after r-HuEPO treatment” value ([2]; r-HuEPO 40,000 U once weekly, after a median of four weeks) was 12.7 g/dL.

For “Infliximab: monoclonal antibody that blocks the biological activity of circulating TNFα”, the “neutralization of TNFβ (lymphotoxin α)” value (TNFβ (lymphotoxin α)) is listed as “does not neutralize”, the “median Cmax” value [3] is listed as 118 µg/mL and the “median Vd (volume of distribution at steady state)” value [3] is listed as 3.0 L. The terminal half-life [3] was 9.5 days.

In the case of NC(=O)c1ncn([C@@H]2O[C@H](CO)[C@@H](O)[C@H]2O)n1 [REBETOL, 1β-D-ribofuranosyl 1H-1,2,4-Triazole-3-carboxamide], the “patients requiring a dose modification” value [4] is given as “about 26%”.
